# “Also recorded” adds a separate entry of the source. Like-named read-outs stand apart in the source and are kept apart here.
# Assays:
# [1] = biological target: T1, human MT1-MMP/MMP-14 (catalytic domain) (Homo sapiens, UniProt P50281); test: Inhibition of MMP-14, fluorescence quenched peptide substrate McaPLGL(Dpa)AR-NH2; format: biochemical; settings: for Ki: substrate McaPLGL(Dpa)AR-NH2 4 µM, 30 min pre-incubation at room temperature, calculated from IC50, read-out: Ki ± s.d. MMP-14; for effect of 100 μM compound on MMP-14 activity: pre-incubation 0-45 min
# T1 construct: human MT1-MMP/MMP-14 (catalytic domain); purchased Calbiochem (San Diego, CA, USA)
# Description: (§1) McaPLGL(Dpa)AR-NH2 was used as a substrate for MMP-9 and MMP-14, while McaRPPGFSAFK(Dnp)-OH was used as substrate for ALN, PLN and TLN. The reaction velocities/initial rates (v) were determined at 37 °C, at an excitation wavelength of 320 nm and an emission wavelength of 405 nm with a slit width of 10 nm using either a Perkin Elmer LS 50 Luminescence spectrometer and the FL WinLab Software Package (Perkin Elmer) or a Clario Star microplate reader (CLARIOstar® BMG LABTECH).
# (§2) The test compounds were dissolved in 100% DMSO giving a concentration of 10 mM. A fixed substrate concentration of 4.0 µM in a total volume of 100 µL 0.1 M Hepes pH 7.5, 10 mM CaCl2, 0.005% Brij-35 and 1.0% DMSO, were used in all assays, except for ALN where the substrate concentration was 5.0 µM. The fixed enzyme concentrations were as follows; 0.05 nM MMP-9, 1.0 nM MMP-14, 1.4 nM ALN, 0.5 nM PLN and 0.21 nM TLN. Time-dependent inhibitory experiments without and with 100 μM of testing compounds were performed as follows. Compounds were either pre-incubated with the proteases for 15, 30 and 45 min at room temperature and the enzymatic reaction was started by adding the substrate, or not pre-incubated, i.e., the reaction was started by adding the protease to the mixture of substrate and compound. Control tests without compound present were performed in the same way. The reaction was followed for 30 min at 37 °C.
# (§3) Enzymes with and without inhibitor were pre-incubated for 30 min at room temperature, and initial rate assays were performed as described above. Assays were performed using a Clario Star microplate reader (CLARIOstar® BMG LABTECH). The IC50 values were calculated in Graph Pad Prism 5 using Equation (1):(1) vi/v0=1/(1+10^(pIC50−pI)) where vi is the enzyme activity in the presence of inhibitor, v0 the activity in the absence of inhibitor, pI = −log [Inhibitor] in M and pIC50 = −log IC50 in M. All experiments were performed in at least triplicate.
# recombinant human MMP-9 = biological target: T2, recombinant human MMP-9 (Homo sapiens, UniProt P14780); test: Inhibition of MMP-9, fluorescence quenched peptide substrate McaPLGL(Dpa)AR-NH2; format: biochemical; settings: for Ki: substrate McaPLGL(Dpa)AR-NH2 4 µM, 30 min pre-incubation at room temperature, calculated from IC50, read-out: Ki ± s.d. MMP-9; for effect of 100 μM compound on MMP-9 activity: pre-incubation 0-45 min
# T2 construct: made in house; host or cells: Sf9 insect cells
# Description: The expression and purification of recombinant human full-length proMMP-9 (rpMMP-9) from Sf9 insect cells were performed as described previously. The amount of proMMP-9 was estimated spectrophotometrically at 280 nm using ε280 nm = 114.36 mM^−1 cm^−1 [48]. Activation of the recombinant proMMP-9 was performed with APMA (auto-activation) as described previously. The amount of active MMP-9 was determined by active site titration using galardin also described previously.
# as §1, §2, §3
# pseudolysin (PLN) = biological target: T3, pseudolysin (PLN) (Pseudomonas aeruginosa, UniProt P14756); test: Inhibition of pseudolysin (PLN), substrate McaRPPGFSAFK(Dnp)-OH; format: biochemical; settings: for effect of 100 μM compound on PLN activity: pre-incubation 0-45 min
# T3 construct: purchased Calbiochem (San Diego, CA, USA)
# Description: as §1, §2, §3
# thermolysin (TLN) = biological target: T4, thermolysin (TLN) (Bacillus thermoproteolyticus, UniProt P00800); test: Inhibition of thermolysin (TLN), substrate McaRPPGFSAFK(Dnp)-OH; format: biochemical; settings: for Ki: substrate McaRPPGFSAFK(Dnp)-OH 4 µM, 30 min pre-incubation at room temperature, calculated from IC50, read-out: Ki ± s.d. TLN; for effect of 100 μM compound on TLN activity: pre-incubation 0-45 min
# T4 construct: purchased Calbiochem (San Diego, CA, USA)
# Description: as §1, §2, §3
# aureolysin (ALN) = biological target: T5, aureolysin (ALN) (Staphylococcus aureus, UniProt P81177); test: Inhibition of aureolysin (ALN), substrate McaRPPGFSAFK(Dnp)-OH; format: biochemical; settings: for effect of 100 μM compound on ALN activity: pre-incubation 0-45 min
# T5 construct: purchased BioCentrum Ltd. (Kraków, Poland)
# Description: as §1, §2, §3
# [2] = cited from earlier work
# VIM-2 = system: VIM-2; parameters: method as in PMID 32179522; settings: cited from earlier work
# NDM-1 = system: NDM-1; parameters: method as in PMID 32179522; settings: cited from earlier work
# Gram-negative pathogens = system: Gram-negative pathogens; parameters: method as in PMID 32179522; settings: cited from earlier work
# [3] = cited from earlier work; remark: listed apart in the source
# T3 sequence (P14756 198-498): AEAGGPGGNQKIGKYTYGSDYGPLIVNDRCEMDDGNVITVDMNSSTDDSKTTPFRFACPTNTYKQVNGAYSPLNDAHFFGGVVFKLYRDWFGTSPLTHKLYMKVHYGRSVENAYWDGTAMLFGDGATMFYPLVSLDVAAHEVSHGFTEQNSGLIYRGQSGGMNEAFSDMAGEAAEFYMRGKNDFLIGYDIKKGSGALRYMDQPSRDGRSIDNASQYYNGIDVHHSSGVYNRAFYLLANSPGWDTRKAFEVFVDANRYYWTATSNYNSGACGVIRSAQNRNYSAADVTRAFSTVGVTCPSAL
# T2 sequence (P14780 107-707 limits assumed): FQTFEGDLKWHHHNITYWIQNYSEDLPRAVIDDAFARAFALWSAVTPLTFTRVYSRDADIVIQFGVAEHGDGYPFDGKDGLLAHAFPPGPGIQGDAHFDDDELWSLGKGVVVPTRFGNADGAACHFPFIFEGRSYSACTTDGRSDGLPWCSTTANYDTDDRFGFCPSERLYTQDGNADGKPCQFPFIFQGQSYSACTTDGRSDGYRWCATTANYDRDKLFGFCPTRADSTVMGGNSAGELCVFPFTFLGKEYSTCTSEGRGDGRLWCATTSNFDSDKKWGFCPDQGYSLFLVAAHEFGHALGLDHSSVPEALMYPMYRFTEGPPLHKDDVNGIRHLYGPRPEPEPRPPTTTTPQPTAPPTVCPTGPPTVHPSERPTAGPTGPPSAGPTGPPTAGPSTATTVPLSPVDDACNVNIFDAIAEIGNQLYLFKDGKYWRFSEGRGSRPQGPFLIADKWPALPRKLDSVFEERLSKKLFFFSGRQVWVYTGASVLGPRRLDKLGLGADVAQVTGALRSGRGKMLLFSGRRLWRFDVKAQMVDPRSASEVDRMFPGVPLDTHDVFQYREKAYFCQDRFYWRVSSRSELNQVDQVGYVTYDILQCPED
# T4 sequence (P00800 233-548): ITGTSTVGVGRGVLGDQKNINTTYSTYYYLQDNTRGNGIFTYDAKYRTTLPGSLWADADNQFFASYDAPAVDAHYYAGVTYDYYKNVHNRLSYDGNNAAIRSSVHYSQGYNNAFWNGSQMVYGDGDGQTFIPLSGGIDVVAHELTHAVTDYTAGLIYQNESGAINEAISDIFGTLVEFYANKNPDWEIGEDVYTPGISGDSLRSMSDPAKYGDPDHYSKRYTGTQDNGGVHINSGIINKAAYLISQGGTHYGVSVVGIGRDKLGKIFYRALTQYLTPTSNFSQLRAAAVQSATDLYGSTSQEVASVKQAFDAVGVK
# T5 sequence (P81177 209-509): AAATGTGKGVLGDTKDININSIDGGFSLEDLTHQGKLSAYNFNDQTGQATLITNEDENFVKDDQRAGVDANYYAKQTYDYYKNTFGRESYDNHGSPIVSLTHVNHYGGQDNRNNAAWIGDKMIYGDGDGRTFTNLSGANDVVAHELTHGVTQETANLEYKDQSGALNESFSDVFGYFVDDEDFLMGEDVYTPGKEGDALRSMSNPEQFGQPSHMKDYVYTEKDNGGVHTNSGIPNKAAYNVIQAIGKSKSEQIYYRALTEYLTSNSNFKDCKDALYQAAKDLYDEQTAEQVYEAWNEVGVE
smiles,measurement,setting,value
COC(=O)Cc1ccc(NC(=O)c2ccc(CN(Cc3ccccn3)Cc3ccccn3)nc2)cc1 [Zn244],Ki,[1],4 ± 0.3 µM
same,Ki,recombinant human MMP-9,22 ± 6 µM
same,IC50,pseudolysin (PLN),4.46 ± 0.05 µM
same,Ki,pseudolysin (PLN),4 ± 1 µM
O=C(O)c1ccc(CN(CCN(Cc2ccccn2)Cc2ccccn2)Cc2ccc(C(=O)O)cn2)nc1 [Zn239],Ki,[1],6.1 ± 0.5 µM
same,Ki,recombinant human MMP-9,58 ± 14 µM
same,Ki,pseudolysin (PLN),5 ± 2 µM
same,Ki,thermolysin (TLN),32 ± 5 µM
COC(=O)c1ccc(CN(Cc2ccccn2)Cc2ccccn2)nc1 [Zn145],Ki,[1],1.5 ± 0.1 µM
same,Ki,pseudolysin (PLN),12 ± 4 µM
CC(N)C(=O)NC(C)C(=O)NCCc1ccc(NC(=O)c2ccc(CN(Cc3ccccn3)Cc3ccccn3)nc2)cc1 (stereo not shown) [Zn155],Ki,[1],2.4 ± 0.2 µM
same,Ki,recombinant human MMP-9,26 ± 6 µM
same,Ki,aureolysin (ALN),60 ± 6 µM
same,Ki,pseudolysin (PLN),6 ± 2 µM
CN(C[C@H](O)[C@@H](O)[C@H](O)[C@H](O)CO)C(=O)c1ccc(CN(Cc2ccccn2)Cc2ccccn2)nc1 [Zn148],Ki,[1],8.6 ± 0.7 µM
same,effect of 100 μM compound on ALN activity,aureolysin (ALN),no or only a limited effect
same,IC50,pseudolysin (PLN),6.07 ± 0.08 µM
same,Ki,pseudolysin (PLN),5 ± 2 µM
same,effect of 100 μM compound on TLN activity,thermolysin (TLN),no or only a limited effect
same,Kd,[2]; read-out: Kd (zinc),0.001 nM
same,inactivation of MBL VIM-2,VIM-2,irreversible inhibitor
same,inactivation of MBL NDM-1,NDM-1,irreversible inhibitor
same,reversal of carbapenem resistance in Gram-negative pathogens,Gram-negative pathogens,reverse carbapenem resistance
same,acute toxicity,[3]; female BALB/c mice,limited in vivo toxicity
same,acute toxicity,"[3]; mouse, in vivo",without acute toxicity
CN(C[C@H](O)[C@@H](O)[C@H](O)[C@H](O)CO)C(=O)c1ccc(CN(Cc2ccccc2)Cc2ccccc2)nc1 [Zn222],effect of 100 μM compound on MMP-14 activity,[1],weaker binding than Zn148; also recorded: binding was prevented
same,effect of 100 μM compound on MMP-9 activity,recombinant human MMP-9,weaker binding than Zn148
same,effect of 100 μM compound on ALN activity,aureolysin (ALN),no effect
same,effect of 100 μM compound on PLN activity,pseudolysin (PLN),weaker binding than Zn148
same,effect of 100 μM compound on TLN activity,thermolysin (TLN),no effect
same,Kd,[2]; read-out: Kd (zinc),1000 nM
same,inactivation of MBL VIM-2,VIM-2,did not inactivate
same,inactivation of MBL NDM-1,NDM-1,did not inactivate
same,reversal of carbapenem resistance in Gram-negative pathogens,Gram-negative pathogens,lacked the ability to reverse carbapenem resistance
"c1ccc(CNCc2ccccn2)nc1 [DPA, di(2-pyridinemethyl)amine, reference compound]",effect of 100 μM compound on MMP-14 activity,[1],greatly enhanced
same,Ki,pseudolysin (PLN),4 ± 1 µM
same,effect of 100 μM compound on PLN activity,pseudolysin (PLN),Moderately strong inhibition
same,Kd,[2]; read-out: Kd (zinc-binder),~10 nM
COC(=O)c1ccc(CN(Cc2cccs2)Cc2cccs2)nc1 [Zn216],effect of 100 μM compound on MMP-14 activity,[1],weak inhibition or lack of inhibition
same,effect of 100 μM compound on PLN activity,pseudolysin (PLN),weak inhibition or lack of inhibition
CC(=O)OC[C@@H](OC(C)=O)[C@@H](OC(C)=O)[C@H](OC(C)=O)[C@H](CN(C)C(=O)c1ccc(CN(Cc2ccccn2)Cc2ccccn2)nc1)OC(C)=O [Zn224],Ki,[1],4.5 ± 0.4 µM
same,Ki,pseudolysin (PLN),13 ± 4 µM
CN(C[C@H](O)[C@@H](O)[C@H](O)[C@H](O)CO)C(=O)c1ccc(CN(Cc2ccccc2)Cc2ccccn2)nc1 [Zn223],effect of 100 μM compound on MMP-14 activity,[1],weaker binding than Zn148; also recorded: binding was prevented
same,effect of 100 μM compound on MMP-9 activity,recombinant human MMP-9,weaker binding than Zn148
same,effect of 100 μM compound on ALN activity,aureolysin (ALN),no effect
same,effect of 100 μM compound on PLN activity,pseudolysin (PLN),weaker binding than Zn148
same,effect of 100 μM compound on TLN activity,thermolysin (TLN),no effect
same,Kd,[2]; read-out: Kd (zinc),100 nM
same,inactivation of MBL VIM-2,VIM-2,reduced capability to inactivate
same,inactivation of MBL NDM-1,NDM-1,reduced capability to inactivate
same,reversal of carbapenem resistance in Gram-negative pathogens,Gram-negative pathogens,lacked the ability to reverse carbapenem resistance
O=C(NCCc1ccc(NC(=O)c2ccc(CN(Cc3ccccn3)Cc3ccccn3)nc2)cc1)c1ccc(CN(Cc2ccccn2)Cc2ccccn2)nc1 [Zn175],Ki,recombinant human MMP-9,6 ± 2 µM
same,Ki,aureolysin (ALN),14 ± 1 µM
same,Ki,pseudolysin (PLN),7 ± 2 µM
NCCc1ccc(NC(=O)CN(CCN(Cc2ccccn2)Cc2ccccn2)Cc2ccccn2)cc1 [Zn45],Ki,[1],2.5 ± 0.2 µM
same,Ki,pseudolysin (PLN),2.8 ± 0.9 µM
same,Ki,thermolysin (TLN),7 ± 1 µM
CC(N)C(=O)NC(C)C(=O)N1CCN(C(=O)c2ccc(CN(Cc3ccccn3)Cc3ccccn3)nc2)CC1 (stereo not shown) [Zn177],Ki,[1],11.2 ± 0.9 µM
same,Ki,recombinant human MMP-9,56 ± 14 µM
same,Ki,pseudolysin (PLN),11 ± 4 µM
O=C(O)c1ccc(CN(Cc2ccccn2)Cc2ccccn2)nc1 [Zn146],Ki,[1],3.8 ± 0.3 µM
same,Ki,recombinant human MMP-9,21 ± 5 µM
same,Ki,aureolysin (ALN),25 ± 2 µM
same,Ki,pseudolysin (PLN),4 ± 1 µM
O=C(NC[C@H](O)[C@@H](O)[C@H](O)[C@H](O)CO)c1ccc(CN(Cc2ccccn2)Cc2ccccn2)nc1 [Zn230],Ki,[1],3.5 ± 0.3 µM
same,Ki,recombinant human MMP-9,22 ± 6 µM
same,Ki,aureolysin (ALN),20 ± 2 µM
same,Ki,pseudolysin (PLN),1.1 ± 0.3 µM
same,Ki,thermolysin (TLN),12 ± 2 µM
CCN(C[C@H](O)[C@@H](O)[C@H](O)[C@H](O)CO)C(=O)c1ccc(CN(Cc2ccccn2)Cc2ccccn2)nc1 [Zn225],Ki,[1],4.5 ± 0.4 µM
same,Ki,recombinant human MMP-9,28 ± 7 µM
same,Ki,pseudolysin (PLN),5 ± 2 µM
same,Ki,thermolysin (TLN),9 ± 2 µM
COC(=O)c1ccc(CN(Cc2cccs2)Cc2cccs2)s1 [Zn215],effect of 100 μM compound on MMP-14 activity,[1],weak inhibition or lack of inhibition
same,effect of 100 μM compound on PLN activity,pseudolysin (PLN),weak inhibition or lack of inhibition
O=C(NCc1ccc(CN(Cc2ccccn2)Cc2ccccn2)nc1)C1OC(O)C(O)C(O)C1O (stereo not shown) [Zn227],Ki,[1],4.8 ± 0.4 µM
same,Ki,recombinant human MMP-9,77 ± 19 µM
same,Ki,pseudolysin (PLN),9 ± 3 µM
same,Ki,thermolysin (TLN),11 ± 2 µM

# Reference: publication PMC8746695, “Zinc-Chelating Compounds as Inhibitors of Human and Bacterial Zinc Metalloproteases” (Molecules, 2021)
